US11485987B2, “Methods for inducing bioorthogonal reactivity” (University of Delaware, priority 2015, dated 2022)

Tests used:
[1] = Methylene blue catalyzed photooxidation of DHTz to tetrazine
Description: Upon addition of horseradish peroxidase (15 nM) the UV-vis spectrum was monitored every 10 seconds. With 50% conversion after 100 seconds, complete conversion of 3a to 4a is observed after 600 seconds, as evidenced by the decrease in the absorption at 292 nm and increase at 325 nm with an isosbestic point at 303 nm. Similar spectral changes are observed when 3a is electrochemically oxidized to 4a in aqueous solution, or when the oxidation of 3a to 4a is photocatalyzed by methylene blue. […] Methylene blue was considered a particularly attractive sensitizer due to its clinical relevance, low molecular weight, low toxicity, high solubility, and an absorption spectrum (λmax 665 nm) that extends to the near IR. Further, methylene blue has previously been explored for applications in photodynamic therapy based on oxidation of indole-3-acetic acid. Rose bengal (λmax 550 nm), used in a range of biomedical applications, was also identified as an excellent sensitizer. […] […] […] The mechanism of photooxidation more likely involves electron transfer and is the subject of ongoing study.
Thus, a PBS solution of 3a was sparged with 98% nitrogen and 2% air, such that the final O2 concentration was 5 μM.
Oxidation of 3a to 4a was monitored by recording absorbance at 325 nm every 30 seconds. Cuvettes for these experiments were washed with EDTA/PBS as described in the General Considerations (section 2.1). […]

[2] = biological target: T1, horseradish peroxidase (HRP) (Armoracia rusticana, UniProt P00433); assay: Horseradish peroxidase (HRP) catalyzed oxidation of DHTz to tetrazine; type: biochemical; conditions: [3a] 8 μM; HRP 15 nM; first 10 seconds
T1 sequence (P00433 31-338): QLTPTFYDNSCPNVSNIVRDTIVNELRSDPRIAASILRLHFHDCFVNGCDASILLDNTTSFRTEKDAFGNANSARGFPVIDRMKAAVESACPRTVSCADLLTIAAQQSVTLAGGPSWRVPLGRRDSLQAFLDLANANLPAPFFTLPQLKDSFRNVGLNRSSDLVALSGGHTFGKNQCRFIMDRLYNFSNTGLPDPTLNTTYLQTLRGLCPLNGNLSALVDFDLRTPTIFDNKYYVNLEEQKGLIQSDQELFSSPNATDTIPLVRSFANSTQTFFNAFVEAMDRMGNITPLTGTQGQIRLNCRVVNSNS

A19V D222G APEX2 = assay: Oxidation of 15 by APEX2 variant A19V D222G APEX2; type: biochemical; conditions: 15 40 μM, enzyme 275 nM, PBS with EDTA
Description: 15 (40 μM) from methanol stock solutions was added to PBS containing […] EDTA. After 10s, APEX2 (275 nM) was dosed in and oxidation was monitored at 325 nm for 15. The procedure stated above was repeated for F41A APEX2 and A19V D222G APEX2. (FIG. 17).

ferricytochrome C = assay: Background oxidation of DHTZ by ferricytochrome C; type: biochemical; conditions: ferricytochrome c two orders of magnitude higher concentration than APEX2
Excerpt: Superoxide has been reported to reduce ferricytochrome C Fe(III) to ferrocytochrome C Fe(II) and O2. Superoxide production during oxidation of DHTZ by APEX2 (SEQ ID NO:1) has been detected by following the reduction of ferricytochrome C Fe(III) to ferrocytochrome C Fe(II) (λmax=550 nm) by UV-Vis spectrometry (FIG. 11C-D). Two wavelengths, 325 nm for tetrazine formation and 550 nm for ferrocytochrome c formation, were followed where reduction of ferricytochrome C by the superoxide byproduct formed during DHTZ oxidation was observed. Addition of SOD stopped the formation of ferrocytochrome C, thus confirming that superoxide is formed during oxidation of DHTZ by APEX2 (SEQ ID NO:1). A stoichiometric background oxidation of DHTZ by ferricytochrome C was observed where the rate of the oxidation of 15 by ferricytochrome c was 2× slower than APEX2 (SEQ ID NO:1) at ferricytochrome c concentrations two orders of magnitude higher than APEX2 (SEQ ID NO:1). While oxidation of DHTZ by cytochrome C is not catalytic or feasible for intracellular applications, it does confirm that DHTZ undergoes two successive one-electron oxidations as cytochrome C cannot oxidize substrates by two-electron oxidations.
15 (10 μM) from stock solution was added to PBS containing 100 μM EDTA. Ferricytochrome C (60 μM) was dosed in after 10 seconds followed by addition of APEX2 (SEQ ID NO:1) ([…]). […]

Structure (SMILES) | time to quantitative conversion to tetrazine 4a ([1]; 3a 21 μM, methylene blue 4 μM, 660 nm LED 9.1 mW/cm^2, pH 7.4 PBS) [s] | time to complete conversion of 3a to 4a ([1]; hypoxia model, O2 5 μM, methylene blue 7 μM, 660 nm) [min] | conversion of 3a to 4a ([1]; methylene blue 4 μM, ambient light, 2 h) [%] | Rate of HRP Oxidation of 3a [2] [M/s] | oxidation by A19V D222G APEX2 (tetrazine formation at 325 nm) (A19V D222G APEX2) | rate of oxidation by ferricytochrome c slower than APEX2 (ferricytochrome C) [×]
O=C(O)CCC(=O)Nc1ccc(C2=NNC(c3ccccn3)=NN2)nc1 [3a, 4-oxo-4-((6-(6-(pyridin-2-yl)-1,4-dihydro-1,2,4,5-tetrazin-3-yl)pyridin-3-yl)amino)butanoic Acid] | ≤ 200 | ≤ 30 | 47 | 3.4e-08 |  | 
O=C(O)CCCC(=O)Nc1ccc(C2=NNC(c3ccccn3)=NN2)nc1 [compound 15] |  |  |  |  | can oxidize 15 | 2
